IC50 data for 17 compounds are collected here from US20130184273A1, “BICYCLIC PYRIMIDINES” (Bayer Intellectual Property GmbH, priority 2010, published 2013).

Experiment [1] deals with T1, His-tagged human recombinant kinase full-length Akt1 (Homo sapiens, UniProt P31749).
T1 construct: His-tagged human recombinant kinase full-length Akt1; His; purchased Invitrogen PV 3599; host or cells: insect cells
Kind of experiment: Akt1 kinase assay (TR-FRET). The following applies: 10 μM ATP, 60 min at 22° C., read-out: Akt1, median IC50. It is filed as biochemical. The text has this: Akt1 inhibitory activity of compounds of the present invention was quantified employing the Akt1 TR-FRET assay as described in the following paragraphs.
His-tagged human recombinant kinase full-length Akt1 expressed in insect cells was purchased form Invitrogen (part number PV 3599). As substrate for the kinase reaction the biotinylated peptide biotin-Ahx-KKLNRTLSFAEPG (C-terminus in amide form) was used which can be purchased e.g. from the company Biosynthan GmbH (Berlin-Buch, Germany).
(§1) For the assay 50 nl of a 100 fold concentrated solution of the test compound in DMSO was pipetted into a black low volume 384well microtiter plate (Greiner Bio-One, Frickenhausen, Germany), 2 μl of a solution of Akt1 in assay buffer [50 mM TRIS/HCl pH 7.5, 5 mM MgCl2, 1 mM dithiothreitol, 0.02% (v/v) Triton X-100 (Sigma)] were added and the mixture was incubated for 15 min at 22° C. to allow pre-binding of the test compounds to the enzyme before the start of the kinase reaction. Then the kinase reaction was started by the addition of 3 μl of a solution of adenosine-tri-phosphate (ATP, 16.7 μM=>final conc. in the 5 μl assay volume is 10 μM) and substrate (1.67 μM=>final conc. in the 5 μl assay volume is 1 μM) in assay buffer and the resulting mixture was incubated for a reaction time of 60 min at 22° C. The concentration of Akt1 in the assay was adjusted depending of the activity of the enzyme lot and was chosen appropriate to have the assay in the linear range, typical enzyme concentrations were in the range of about 0.05 ng/μl (final conc. in the 5 μl assay volume).
The reaction was stopped by the addition of 5 μl of a solution of HTRF detection reagents (200 nM streptavidine-XL665 [Cisbio] and 1.5 nM anti-phosho-Serine antibody [Millipore, cat. #35-001] and 0.75 nM LANCE Eu-W 1024 labeled anti-mouse IgG antibody [Perkin Elmer]) in an aqueous EDTA-solution (100 mM EDTA, 0.1% (w/v) bovine serum albumin in 50 mM HEPES/NaOH pH 7.5). The resulting mixture was incubated 1 h at 22° C. to allow the binding of the biotinylated phosphorylated peptide to the streptavidine-XL665 and the antibodies. Subsequently the amount of phosphorylated substrate was evaluated by measurement of the resonance energy transfer from the anti-mouse-IgG-Eu-Chelate to the streptavidine-XL665. Therefore, the fluorescence emissions at 620 nm and 665 nm after excitation at 350 nm was measured in a HTRF reader, e.g. a Rubystar (BMG Labtechnologies, Offenburg, Germany) or a Viewlux (Perkin-Elmer). The ratio of the emissions at 665 nm and at […] was taken as the measure for the amount of phosphorylated substrate. The data were normalised (enzyme reaction without inhibitor=0% inhibition, all other assay components but no enzyme=100% inhibition).
Background: TR-FRET usually uses a lanthanide donor and a delayed reading to cut background.

Experiment [2] concerns the target T2, His-tagged human recombinant kinase full-length Akt2 (Homo sapiens, UniProt P31751).
T2 construct: His-tagged human recombinant kinase full-length Akt2; His; purchased Invitrogen PV 3975; host or cells: insect cells
Kind of experiment: Akt2 kinase assay (TR-FRET). Type of experiment: biochemical. The settings on record: 10 μM ATP, 60 min at 22° C., read-out: Akt2, median IC50.
Description: Akt2 inhibitory activity of compounds of the present invention was quantified employing the Akt2 TR-FRET assay as described in the following paragraphs.
His-tagged human recombinant kinase full-length Akt2 expressed in insect cells and activated by PDK1 was purchased form Invitrogen (part number PV 3975). As substrate for the kinase reaction the biotinylated peptide biotin-Ahx-KKLNRTLSFAEPG (C-terminus in amide form) was used which can be purchased e.g. from the company Biosynthan GmbH (Berlin-Buch, Germany).
as §1, with “Akt2” for “Akt1”, “0.2” for “0.05”
The reaction was stopped by the addition of 5 μl of a solution of HTRF detection reagents (200 nM streptavidine-XL665 [Cisbio] and 1.5 nM anti-phosho-Serine antibody [Millipore, cat. #35-001] and 0.75 nM LANCE Eu-W 1024 labeled anti-mouse IgG antibody [Perkin Elmer]) in an aqueous EDTA-solution (100 mM EDTA, 0.1% (w/v) bovine serum albumin in 50 mM HEPES/NaOH pH 7.5).
The resulting mixture was incubated 1 h at 22° C. to allow the binding of the biotinylated phosphorylated peptide to the streptavidine-XL665 and the antibodies.
Subsequently the amount of phosphorylated substrate was evaluated by measurement of the resonance energy transfer from the anti-mouse-IgG-Eu-Chelate to the streptavidine-XL665. Therefore, the fluorescence emissions at 620 nm and 665 nm after excitation at 350 nm was measured in a TR-FRET reader, e.g. a Rubystar (BMG Labtechnologies, Offenburg, Germany) or a Viewlux (Perkin-Elmer). The ratio of the emissions at 665 nm and at […] was taken as the measure for the amount of phosphorylated substrate. The data were normalised (enzyme reaction without inhibitor=0% inhibition, all other assay components but no enzyme=100% inhibition).

T1 sequence (P31749 whole entry): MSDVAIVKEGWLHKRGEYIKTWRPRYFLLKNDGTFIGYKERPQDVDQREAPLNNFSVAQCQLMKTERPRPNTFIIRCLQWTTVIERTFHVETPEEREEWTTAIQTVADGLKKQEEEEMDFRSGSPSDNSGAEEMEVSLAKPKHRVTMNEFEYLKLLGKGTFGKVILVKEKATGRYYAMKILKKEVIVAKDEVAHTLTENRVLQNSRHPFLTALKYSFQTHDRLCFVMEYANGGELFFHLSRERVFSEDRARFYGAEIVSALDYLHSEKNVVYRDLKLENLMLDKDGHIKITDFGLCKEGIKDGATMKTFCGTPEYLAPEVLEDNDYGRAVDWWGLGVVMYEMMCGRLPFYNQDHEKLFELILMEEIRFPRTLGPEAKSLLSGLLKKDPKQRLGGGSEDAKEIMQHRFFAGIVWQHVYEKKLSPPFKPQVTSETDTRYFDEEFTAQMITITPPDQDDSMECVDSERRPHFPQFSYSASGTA
T2 sequence (P31751 whole entry): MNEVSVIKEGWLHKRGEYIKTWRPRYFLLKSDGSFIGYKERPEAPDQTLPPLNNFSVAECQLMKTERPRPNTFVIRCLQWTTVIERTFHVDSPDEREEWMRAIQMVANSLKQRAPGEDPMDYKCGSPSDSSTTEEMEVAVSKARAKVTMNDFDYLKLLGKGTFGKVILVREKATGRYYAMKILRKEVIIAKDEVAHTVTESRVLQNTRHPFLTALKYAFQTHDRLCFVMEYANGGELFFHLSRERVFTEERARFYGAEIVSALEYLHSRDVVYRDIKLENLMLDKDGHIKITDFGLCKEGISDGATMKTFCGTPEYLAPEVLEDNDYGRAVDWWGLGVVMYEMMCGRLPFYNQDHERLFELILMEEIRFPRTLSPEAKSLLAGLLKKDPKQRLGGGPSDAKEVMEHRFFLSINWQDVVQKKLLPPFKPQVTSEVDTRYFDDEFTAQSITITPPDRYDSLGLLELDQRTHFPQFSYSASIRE

In the case of `Cc1nc2nc(-c3ccc(C4(N)CCC4)cc3)c(-c3ccccc3)c(C)n2n1` [Example 1-3, 1-[4-(2,7-dimethyl-6-phenyl-[1,2,4]triazolo[1,5-a]pyrimidin-5-yl)-phenyl]-cyclobutylamine], the IC50 (as a rule, the concentration that gives 50% inhibition) is 0.526 µM in experiment [1] and 1.02 µM in experiment [2].
Taken in the same sequence, the figures for `CNc1c(-c2ccccc2)c(-c2ccc(C3(N)CCC3)cc2)nc2nc(C3CC3)nn12` [Example 5-10, {5-[4-(1-amino-cyclobutyl)-phenyl]-2-cyclopropyl-6-phenyl-[1,2,4]triazolo[1,5-a]pyrimidin-7-yl}-methyl-amine] were 0.93 µM and 0.982 µM.
Taken in the same sequence, the figures for `COCCNc1nc2nc(-c3ccc(C4(N)CCC4)cc3)c(-c3ccccc3)cn2n1` [Example 5-0, {5-[4-(1-Amino-cyclobutyl)-phenyl]-6-phenyl-[1,2,4]triazolo[1,5-a]pyrimidin-2-yl}-(2-methoxy-ethyl)-amine] were 1.83 µM and 0.877 µM.
Take `COC[C@H](C)Nc1c(-c2ccccc2)c(-c2ccc(C3(N)CCC3)cc2)nc2nccn12` [Example 2-4, {7-[4-(1-Amino-cyclobutyl)-phenyl]-6-phenyl-imidazo[1,2-a]pyrimidin-5-yl}-((S)-2-methoxy-1-methyl-ethyl)-amine]: the IC50 is 10.6 µM in experiment [1] and 1.27 µM in experiment [2].
On the same counts, the results for `CCNc1c(-c2ccccc2)c(-c2ccc(C3(N)CCC3)cc2)nc2nc(C)nn12` [Example 5-11, {5-[4-(1-amino-cyclobutyl)-phenyl]-2-methyl-6-phenyl-[1,2,4]triazolo[1,5-a]pyrimidin-7-yl}-ethyl-amine] are 1.73 µM and 1.12 µM.
On the same counts, the results for `Cc1nc2nc(-c3ccc(C4(N)CCC4)cc3)c(-c3ccccc3)c(NC(C)C)n2n1` [Example 5-7, {5-[4-(1-amino-cyclobutyl)-phenyl]-2-methyl-6-phenyl-[1,2,4]triazolo[1,5-a]pyrimidin-7-yl}-isopropyl-amine] are 0.672 µM and 0.549 µM.
Taken in the same sequence, the figures for `Cc1nc2nc(-c3ccc(C4(N)CCC4)cc3)c(-c3ccccc3)c(NC3CC3)n2n1` [Example 5-12, {5-[4-(1-amino-cyclobutyl)-phenyl]-2-methyl-6-phenyl-[1,2,4]triazolo[1,5-a]pyrimidin-7-yl}-cyclopropyl-amine] were 1.85 µM and 0.904 µM.
`COC[C@H](C)Nc1c(-c2ccccc2)c(-c2ccc(C3(N)CCC3)cc2)nc2nc(C)cn12` [Example 2-6, {7-[4-(1-Amino-cyclobutyl)-phenyl]-2-methyl-6-phenyl-imidazo[1,2-a]pyrimidin-5-yl}-((S)-2-methoxy-1-methyl-ethyl)-amine]: the figures for the IC50 in experiment [1] and in experiment [2] were 13 µM and 2.86 µM, respectively.
Taken in the same sequence, the figures for `CCOC(=O)C1(Nc2c(-c3ccccc3)c(-c3ccc(C4(N)CCC4)cc3)nc3nc(C)nn23)CCC1` [Example 3-3, 1-{5-[4-(1-Aminocyclobutyl)-phenyl]-2-methyl-6-phenyl-[1,2,4]triazolo[1,5-a]pyrimidin-7-ylamino}-cyclobutanecarboxylic acid ethyl ester] were not below 20 µM and 1.12 µM.
For `NC1(c2ccc(-c3nc4nccn4c(N4CCOCC4)c3-c3ccccc3)cc2)CCC1` [Example 2-3, 1-[4-(5-Morpholino-4-yl-6-phenyl-imidazo[1,2-a]pyrimidin-7-yl)phenyl]-cyclobutylamine], the 50% inhibitory concentration (IC50) in experiment [1] was found to be 13.1 µM; in experiment [2] it was 7.47 µM.
In the case of `NC1(c2ccc(-c3nc4nc(-c5ccccn5)nn4c(N4CCOCC4)c3-c3ccccc3)cc2)CCC1` [Example 3-2, 1-[4-(7-Morpholine-4-yl-6-phenyl-2-pyridine-2-yl-[1,2,4]triazolo[1,5-a]pyrimidin-5-yl)-phenyl]-cyclobutylamine], the 50% inhibitory concentration (IC50) in experiment [1] was not below 20 µM; in experiment [2], 6.64 µM.
In the case of `NC1(c2ccc(-c3nc4nccn4c(NC4CC4)c3-c3ccccc3)cc2)CCC1` [Example 2-2, {7-[4-(1-Amino-cyclobutyl)-phenyl]-6-phenyl-imidazo[1,2-a]pyrimidin-5-yl)-cyclopropylamine], the 50% inhibitory concentration (IC50) was found to be 2.05 µM in experiment [1] and 1.58 µM in experiment [2].
As to `NC1(c2ccc(-c3nc4nc(-c5ccccn5)nn4c(NC4CC4)c3-c3ccccc3)cc2)CCC1` [Example 3-1, {5-[4-(1-Aminocyclobutyl)-phenyl]-6-phenyl-2-pyridine-2-yl-[1,2,4]triazolo[1,5-a]pyrimidin-7-yl}-cyclopropylamine], the 50% inhibitory concentration (IC50) in experiment [1] stood at 2.38 µM; in experiment [2] it was 2.32 µM.
On the same counts, the results for `Cc1nc2nc(-c3ccc(C4(N)CCC4)cc3)c(-c3ccccc3)c(NCC3CC3)n2n1` [Example 5-9, {5-[4-(1-amino-cyclobutyl)-phenyl]-2-methyl-6-phenyl-[1,2,4]triazolo[1,5-a]pyrimidin-7-yl}-cyclopropylmethyl-amine] are 0.854 µM and 0.541 µM.
Taken in the same sequence, the figures for `CNc1c(-c2ccccc2)c(-c2ccc(C3(N)CCC3)cc2)nc2nc(C)nn12` [Example 5-13, {5-[4-(1-amino-cyclobutyl)-phenyl]-2-methyl-6-phenyl-[1,2,4]triazolo[1,5-a]pyrimidin-7-yl}-methyl-amine] were 2.24 µM and 2.24 µM.
Taken in the same sequence, the figures for `NC1(c2ccc(-c3nc4nc(C5CC5)nn4c(N[C@H]4CC[C@H](O)CC4)c3-c3ccccc3)cc2)CCC1` [Example 5-15, 4-{5-[4-(1-amino-cyclobutyl)-phenyl]-2-cyclopropyl-6-phenyl-[1,2,4]triazolo[1,5-a]pyrimidin-7-ylamino}-cyclohexanol] were 11.6 µM and 0.936 µM.
With `Cc1nc2nc(-c3ccc(C4(N)CC4)cc3)c(-c3ccccc3)cn2n1` [Example 1-2, 1-[4-(2-methyl-6-phenyl-[1,2,4]triazolo[1,5-a]pyrimidin-5-yl)-phenyl]-cyclopropylamine], the IC50 in experiment [1] was 3.01 µM; in experiment [2], 2.22 µM.
